Common to all, as to test: growth of human tumour cells (NCI), 48 h
Experiment [1] concerns A549 NSCLC.
Experiment [2] relates to BT-549 breast.
The test system of experiment [3] is HCT-116 colon.
Experiment [4] has as its system HL-60(TB) leukemia.
Experiment [5] relates to HT29 colon.
Experiment [6] deals with UACC-257 melanoma.
Experiment [7] relates to KM12 colon.
For experiment [8], the system named is SK-MEL-5 melanoma.
For experiment [9], the system named is IGROV1 ovarian.

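1) Cells in 96-well plates. 2) Compound, 48 h, 5 concentrations. 3) Linear interpolation between surrounding doses. 4) Unreached endpoint = highest concentration. TGI: total growth inhibition.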 A value given as a limit tells only on which side of the number the result lay.

Consider `CCOP(=O)(OCC)/C(C#N)=C/c1ccc(-c2cc(C(F)(F)F)cc(C(F)(F)F)c2)o1`, for which the TGI in experiment [1] was found to be 31.3 µM; in [2], 44.9 µM; in [3] it was 26.2 µM; in experiment [4], 14.3 µM; in [5], 21.9 µM; in [6], 30.6 µM.
`O=Cc1ccc(-c2ccc(-c3ccc(CO)s3)o2)s1`: the TGI was 98.8 µM in [1]; 67.9 µM in experiment [2]; above 40.1 µM in [3]; above 22.3 µM in experiment [4]; above 53.2 µM in experiment [5]; above 100 µM in experiment [7]. Besides, the TGI in [8] was 17.7 µM; in experiment [6], 0.506 µM.
In the case of `Cc1cc(C)nc(NC(P(=O)(O)O)P(=O)(O)O)n1`, the TGI in experiment [1], in [2], in [3], in [5], in experiment [9] and in experiment [7] was above 100 µM in each case. Moreover, the TGI in [8] and in [6] was above 100 µM each time.
For `COc1ccc(N2C(=O)C(=O)N(c3ccc(N=Nc4ccccc4)cc3)C2=S)cc1`, the TGI in [1] is 41.2 µM; in [3], 35.2 µM; in experiment [4], above 100 µM; in [5], 37.1 µM; in [9] it was 31.3 µM; in [7], 32.9 µM. The TGI in experiment [8] was 30.4 µM; in experiment [6], 34.3 µM.
For `C=C1CCCCCCCCC/C=C/1SCCCSC`, the TGI in experiment [1], in [3], in experiment [4], in experiment [5], in [9] and in experiment [7] was above 100 µM in each case. The TGI in [8] and in [6] was above 100 µM each time.
Take `NC1(CCNC(=O)c2ccccc2)CCN(C(=O)c2ccccc2)CC1`: the TGI in experiment [1], in [2], in experiment [3], in [5], in [9] and in [7] was above 100 µM throughout. The TGI in experiment [8] and in [6] was above 100 µM in each case.
`CC1(C)O[C@H]2OC(CO)C(N=[N+]=[N-])[C@H]2O1` (stereo not given in full): the TGI in [1], in [3], in experiment [4], in experiment [5], in experiment [9] and in experiment [7] was above 100 µM each time. Moreover, the TGI in experiment [8] and in [6] was above 100 µM each time.
For the molecule `O=c1[nH]nc(Cc2ccc(Cl)cc2)n1/N=C/c1cccs1`, the TGI in experiment [1] was above 100 µM; in experiment [2], 66.5 µM; in [3], above 100 µM; in [4], above 100 µM; in experiment [5], 40.2 µM; in experiment [9] it was 79.5 µM. The TGI in [7] and in experiment [6] was above 100 µM each time.
With `OC(C/C=N/N=C/CC(O)(C(F)(F)Cl)C(F)(F)Cl)(C(F)(F)Cl)C(F)(F)Cl`, the TGI in [1], in [3], in experiment [4], in [5], in experiment [9] and in experiment [7] was above 10 µM in each case. In addition, the TGI in experiment [8] and in experiment [6] was above 10 µM each time.
On to `CN1CCCOC(c2ccc(Cl)cc2)O1` (stereo not given), for which the TGI in experiment [1], in experiment [2], in [3], in experiment [5], in [9] and in [7] was above 100 µM in each case. In addition, the TGI in experiment [8] and in experiment [6] was above 100 µM in each case.
In the case of `CCOC(=O)CCC1(CCC(=O)OCC)CCCCCCCCC(CCC(=O)OCC)(CCC(=O)OCC)C(=O)C1=O`, the TGI in [1], in [3], in experiment [5], in [9], in [7] and in experiment [8] was above 100 µM each time. In experiment [6], this molecule came in with a TGI above 100 µM.
On to `O=C1/C(=C\c2cccc(Oc3ccccc3)c2)S(=O)(=O)C(c2ccccc2)N1c1cccc(Cl)c1` (stereo not given), for which the TGI in [1], in [2], in [3], in experiment [5], in [9] and in experiment [7] was above 100 µM each time. The TGI in experiment [8] and in [6] was above 100 µM in each case.
`O=C1CC(=O)NC(=NN2C(=O)/C(=C/c3ccc(Cl)c(Cl)c3)N=C2c2ccccc2)N1`: the TGI in experiment [1] was above 100 µM; in experiment [2], 49.2 µM; in experiment [3], 38 µM; in [5], 44.4 µM; in experiment [9] it was above 100 µM; in experiment [7], 40.1 µM. Moreover, the results for the TGI in experiment [8] and in experiment [6] were 30.3 µM and above 100 µM, respectively.
As for `Cc1n[n+](Cc2ccccc2)c2sc(N)nn12`, the TGI in [1], in experiment [2], in experiment [3], in experiment [5], in [9] and in experiment [7] was above 100 µM each time. The TGI in experiment [8] and in experiment [6] was above 100 µM each time.
For `COc1cc2c(cc1O)NC(=O)[C@@H]1CCCN1C2=O`, the TGI in experiment [1], in experiment [2], in experiment [3], in experiment [5], in experiment [9] and in [7] was above 100 µM throughout. For the same molecule, the TGI in experiment [8] and in experiment [6] was above 100 µM each time.
Take `COc1ccc2nc(-c3ccccc3)c(=O)[nH]c2c1`: the TGI in experiment [1], in [2], in experiment [3], in experiment [4], in experiment [5] and in experiment [9] was above 100 µM throughout. Besides, the TGI in experiment [8] and in experiment [6] was above 100 µM in each case.

The values above are taken from PubChem BioAssay (NCI).
